In general, IC50 refers to the concentration that gives 50% inhibition.

Bounds are passed on as bounds.

Data set [1] deals with Erythrocyte. As to the kind of experiment: Hemolytic activity in human erythrocytes at 1 mM. It is filed as functional.
Data set [2] has as its system Candida albicans. As to the kind of experiment: Growth inhibition of Candida albicans JRW#5. It is filed as functional, organism-based.
For data set [3], the system named is CHO. The data set can be described thus: Cytotoxicity against CHO cells at 1.0 mM after 3 days relative to control. It is filed as cell-based, Cricetulus griseus. As to conditions: chinese hamster, 72 h, 1000 µM; call rule not given here.
The test system of data set [4] is CHO. The data set can be described thus: Cytotoxicity against CHO cells at 0.1 mM after 3 days relative to control. As to conditions: chinese hamster, 72 h, 100 µM. It is filed as cell-based, Cricetulus griseus.

`CCCCCCC[C@@H]1C=C[C@H](CCC)OO1` displayed an Activity in data set [1] of 86%. The compound further came in with an IC50 in data set [2] of 250 µM. Consider `C1=C[C@H](C23CC4CC(CC(C4)C2)C3)OO[C@@H]1C12CC3CC(CC(C3)C1)C2`, for which the IC50 in data set [2] is greater than 1000 µM.

As for `CCCCCCC[C@H]1OOC[C@H]2O[C@@]12CCCCCC`, the IC50 in data set [2] is greater than 1000 µM. With `C1=C[C@@H](COCc2ccccc2)OO[C@H]1COCc1ccccc1`, the Activity is 2% in data set [1] and “Active” in data set [3]. This compound also gave an IC50 in data set [2] of 16 µM.

`C1=C[C@@H](CC2CCCCC2)OOC1` displayed an IC50 in data set [2] of 125 µM.

Compound `CCCCCCC[C@H]1OOC[C@@H]2O[C@@H]21` showed an Activity in data set [1] of 33%. The compound also yielded an IC50 in data set [2] of 63 µM.

`C1=C[C@H](c2ccccc2)OO[C@@H]1c1ccccc1`: the result in data set [4] and in data set [3] was Active. The compound also came in with a half-maximal inhibitory concentration (IC50) in data set [2] of 31 µM. Turning to `C1CC2OOC1C1OC21` (stereo not drawn), the Activity in data set [1] was 0%; in data set [4], “Active”; in data set [3] it was “Active”. Moreover, the IC50 in data set [2] was 16 µM. In data set [2], `C1=C(C2CCCCC2)COOC1` returned a half-inhibitory concentration (IC50) of 63 µM. The compound `C1C2CC3CC1CC(C[C@H]1OOC[C@H]4O[C@@H]14)(C2)C3` returned an IC50 in data set [2] of 125 µM.

In the case of `C1CCC([C@@]23COOC[C@@H]2O3)CC1`, the IC50 in data set [2] amounted to 500 µM. In data set [2], `C[C@H]1OO[C@@H](CCCO)[C@@H]2O[C@@H]21` displayed a concentration for half-maximal inhibition (IC50) greater than 1000 µM.

The compound `C1C2CC3CC1CC([C@@H]1OO[C@H](C45CC6CC(CC(C6)C4)C5)[C@H]4O[C@H]41)(C2)C3` displayed an IC50 in data set [2] greater than 1000 µM. Same read-out and setting: the value for `C[C@@H]1C=C[C@H](CCCO)OO1` was 250 µM. The compound `C1=C(C23CC4CC(CC(C4)C2)C3)COOC1` showed an IC50 in data set [2] of 63 µM.

For `CCCCCCC[C@@H]1C=CCOO1`, the Activity in data set [1] is reported as 60%. The same compound yielded an IC50 in data set [2] of 63 µM.

In data set [2], `C[C@H]1OO[C@@H](COC(=O)C23CC4CC(CC(C4)C2)C3)[C@@H]2O[C@@H]21` came in with an IC50 of 250 µM. As for `CCCCCCC[C@H]1OOC[C@@H]2O[C@@]21CCCCCC`, in data set [2], the IC50 is greater than 1000 µM. `C[C@H]1OO[C@@H](COC(=O)CC23CC4CC(CC(C4)C2)C3)[C@@H]2O[C@@H]21` displayed a half-maximal inhibitory concentration (IC50) in data set [2] greater than 1000 µM. For `C1=C[C@@H](C23CC4CC(CC(C4)C2)C3)OOC1`, the Activity in data set [1] was determined as 100%. The compound further returned an IC50 in data set [2] of 31 µM. The compound `C[C@@H]1C=C[C@H](COC(=O)C23CC4CC(CC(C4)C2)C3)OO1` displayed an IC50 in data set [2] of 125 µM. `C[C@H]1OO[C@@H](COC(=O)CC23CC4CC(CC(C4)C2)C3)[C@H]2O[C@H]21` returned a 50% inhibitory concentration (IC50) in data set [2] of 250 µM. `C1C2CC3CC1CC(C[C@H]1OOC[C@@H]4O[C@@H]41)(C2)C3` returned a 50% inhibitory concentration (IC50) in data set [2] of 125 µM.

On to `C1CCC(C[C@H]2OOC[C@H]3O[C@@H]23)CC1`, for which the IC50 in data set [2] came to 125 µM.

Take `C1C2CC3CC1CC([C@H]1OOC[C@@H]4O[C@@H]41)(C2)C3`: the Activity in data set [1] was determined as 41%. The IC50 in data set [2] came out at 31 µM. In the case of `C1=C[C@@H](CC23CC4CC(CC(C4)C2)C3)OOC1`, the concentration for half-maximal inhibition (IC50) in data set [2] is 125 µM. As for `C[C@@H]1C=C[C@H](CO)OO1`, the Activity is 0% in data set [1] and “Active” in data set [4]. In data set [2], this compound had an IC50 of 16 µM.

In data set [1], `CCCCCCC[C@H]1OO[C@@H](CCC)[C@H]2O[C@H]21` returned an Activity of 25%. In data set [2], this compound came in with an IC50 of 500 µM.

`C[C@@H]1[C@H](O)[C@@H](C)/C=C/C=C/C=C/C=C/C=C/C=C/C=C/[C@H](O[C@@H]2O[C@H](C)[C@@H](O)[C@H](N)[C@@H]2O)C[C@@H]2O[C@](O)(C[C@@H](O)C[C@@H](O)[C@H](O)CC[C@@H](O)C[C@@H](O)CC(=O)O[C@H]1C)C[C@H](O)[C@H]2C(=O)O` [AMPHOTERICIN B] returned a concentration for half-maximal inhibition (IC50) in data set [2] of less than 0.5 µM.

Consider `C[C@H]1OO[C@@H](COCc2ccccc2)[C@@H]2O[C@@H]21` (single isomer, unassigned), for which the IC50 in data set [2] was determined as 125 µM. The compound `CCCCCCC[C@H]1OOCC=C1CCCCCC` displayed an IC50 in data set [2] of 250 µM. `c1ccc(COC[C@@H]2OO[C@H](COCc3ccccc3)[C@H]3O[C@H]32)cc1` returned a concentration for half-maximal inhibition (IC50) in data set [2] of 250 µM. In turn, `c1ccc([C@H]2OO[C@@H](c3ccccc3)[C@@H]3O[C@@H]32)cc1` registered a 50% inhibitory concentration (IC50) in data set [2] of 500 µM. With `CCCCCC[C@@]12COOC[C@@H]1O2`, the Activity in data set [1] is 31%. This compound gave a half-inhibitory concentration (IC50) in data set [2] of 500 µM. Turning to `C1CCC(C[C@H]2OOC[C@@H]3O[C@@H]32)CC1`, in data set [2], the half-inhibitory concentration (IC50) is 125 µM. On the same count and under the same terms, the value for `CCCCCCC[C@H]1OOC[C@H]2O[C@@H]12` was 63 µM; that for `C1C2CC3CC1CC([C@@]14COOC[C@@H]1O4)(C2)C3` was 125 µM.

On to `C[C@@H]1C=C[C@H](COC(=O)CC23CC4CC(CC(Br)(C4)C2)C3)OO1`, for which, in data set [2], 250 µM corresponded to half-maximal inhibition (IC50). Take `C[C@@H]1C=C[C@H](COC(=O)CC23CC4CC(CC(C4)C2)C3)OO1`: it took 125 µM to reach half-maximal inhibition in data set [2] (IC50).

`C[C@H]1OO[C@@H](COC(=O)CC23CC4CC(CC(Br)(C4)C2)C3)[C@@H]2O[C@@H]21` yielded an IC50 in data set [2] greater than 1000 µM. On the same count and under the same terms, the value for `C[C@H]1OO[C@@H](COC(=O)CC23CC4CC(CC(Br)(C4)C2)C3)[C@H]2O[C@H]21` was greater than 1000 µM. In data set [1], `CCCCCCC[C@H]1OO[C@@H](CCC)[C@@H]2O[C@@H]21` came in with an Activity of 45%. In data set [2], this compound came in with an IC50 of 500 µM. In data set [2], `C[C@H]1OO[C@@H](CO)[C@@H]2O[C@@H]21` returned a 50% inhibitory concentration (IC50) greater than 1000 µM.

In data set [2], `C[C@@H]1C=C[C@H](COCc2ccccc2)OO1` yielded an IC50 of 250 µM. Same read-out and setting: the value for `C[C@H]1OO[C@@H](COCc2ccccc2)[C@H]2O[C@H]21` was 63 µM. The same measure, in the same setting: the value for `C[C@H]1OO[C@@H](COC(=O)C23CC4CC(CC(C4)C2)C3)[C@H]2O[C@H]21` was 125 µM. `CCCCCCC1=CCOOC1` gave an Activity in data set [1] of 61%. In data set [2], the IC50 was 250 µM. As for `c1ccc(COC[C@@H]2OO[C@H](COCc3ccccc3)[C@@H]3O[C@@H]32)cc1`, the Activity is listed as 1% in data set [1] and “Active” in data set [4]. This compound showed an IC50 in data set [2] of 63 µM.

For the origin of these results see ChEMBL document CHEMBL1144542, “Design of endoperoxides with anti-Candida activity” (Bioorg Med Chem, 2007).
